According to PubChem BioAssay AID1963866 (Molecular Pharmacology Branch, DTP, NCI, 2024):

System: PDC KRAS tumor spheroids with HUVEC/MSC, viability
Test: Anticancer human tumor 349418-098-R-PDC patient-derived lung adenocarcinoma cell line growth inhibition [KRAS2]
Details: for IC50: curve of first compound; for viability, T/C: stronger effect = lower value; active means viability on the fitted dose curve at most 10% of control; inactive means the rest
Excerpt: Multicellular complex tumor spheroid response to RAS pathway inhibitors in combination with a targeted agents in patient-derived cell lines with oncogenic KRAS variants from multiple cancer types
A high-throughput screen of multi-cell type tumor spheroids was designed to identify active combinations of targeted small molecules and KRAS pathway inhibitors. Complex spheroids include a stromal component modeled by human endothelial cells (HUVEC) and fibroblasts modeled by human mesenchymal stem cells (MSCs). The concentration ranges selected for each drug and investigational agent were based upon clinically achievable concentrations if the clinical Cmax of the agent was known.
Compounds. The drugs and investigational agents: BI-3406 (NSC825286), BAY-293 (NSC824723), batoprotafib (TNO155; NSC825523), sotorasib (AMG 510; NSC818433), MRTX1257 (NSC819558), elimusertib (BAY 1895344; NSC800525), molibresib (GSK525762; NSC774829), temuterkib (LY3214996; NSC803410), venetoclax (NSC766270), alisertib (NSC759677), olaparib (NSC753686), talazoparib (NSC767125), erdafitinib (NSC781556), ipatasertib (NSC767898), cabozantinib (NSC761068), nintedanib (NSC756659), abemaciclib (NSC768073), docetaxel (NSC628503), trametinib (NSC758246), and sapanisertib (NSC764658) were obtained from the National Cancer Institute (NCI) Developmental Therapeutics Program Chemical Repository. The FDA-approved anticancer drug set is available from the Developmental Therapeutics Program. […] The stock solutions were prepared in dimethyl sulfoxide (DMSO, Sigma-Aldrich, St. Louis, MO, cat. D2650) at 800-fold the tested concentration and stored at -70 degrees C prior to their use. All drugs and investigational agents were tested over a range starting from a high concentration at or near the clinical Cmax and decreasing in half-log increments. If the clinical Cmax for an agent had not been determined, the highest concentration tested was 10 microM.
Cell Culture. All cells were maintained in an incubator at 37 degrees C and 5% CO2 with 95% humidity. The PDC lines were cultured according to standard operating procedures established by the NCI PDMR (https://pdmr.cancer.gov/sops/default.htm). Briefly, all PDCs were thawed and cultured in Matrigel-coated flasks prepared with a working solution of 1X Ham's F-12 nutrient mix, without supplementation (Invitrogen, Waltham, MA, cat. 11765054), 100 U/mL penicillin-streptomycin (Invitrogen, cat. 15140122), and 2.5% Matrigel (Corning Inc., Corning, NY, cat. 354248) for the first three passages. All PDCs were cultured in complete DMEM/F-12 media containing advanced DMEM/F-12 (Invitrogen, cat. 12634028), 4.9% defined fetal bovine serum, heat inactivated (HyClone Laboratories Inc., Logan, UT, cat. SH30070.03HI), 389 ng/mL hydrocortisone (Sigma-Aldrich, cat. H4001), 9.7 ng/mL human EGF recombinant protein (Invitrogen, cat. PHG0313), 23.4 microg/mL adenine (Sigma-Aldrich, cat. A2786), 97.3 U/mL penicillin-streptomycin (Invitrogen, cat. 15140122), 1.9 mM L-glutamine (Invitrogen, cat. 25030081), and 9.7 microM Y-27632 dihydrochloride (Tocris Bioscience, Bristol, United Kingdom, cat. 1254). The PDCs were cultured in complete DMEM/F12 media without 9.7 microM Y-27632 dihydrochloride for at least two passages prior to the screen. The established cell line HOP-62 was cultured in RPMI 1640 medium, HEPES (Invitrogen, cat. 22400105) with 10% defined fetal bovine serum (HyClone Laboratories Inc., cat. SH30070.03) and 2 mM L-glutamine (Invitrogen, cat. 25030081). The pooled donor HUVEC were cultured in endothelial cell growth medium 2 (PromoCell, Heidelberg, Germany, cat. C-22011) and the hMSC were cultured in mesenchymal stem cell growth medium 2 (PromoCell, cat. C-28009). For all experiments, HUVEC and hMSC were used at passages </=5, while the malignant cell lines were used at passages </=15. […]

[1] = second compound 0.1 µM, first compound 0.0316 µM
[2] = second compound 0.1 µM, first compound 0.1 µM
[3] = second compound 0.1 µM, first compound 0.316 µM
[4] = second compound 0.1 µM, first compound 1 µM
[5] = second compound 0.1 µM, first compound 3.16 µM
[6] = second compound 0.1 µM, first compound 10 µM
[7] = second compound 0.316 µM, first compound 0.0316 µM
[8] = second compound 0.316 µM, first compound 0.1 µM
[9] = second compound 0.316 µM, first compound 0.316 µM
[10] = second compound 0.316 µM, first compound 1 µM
[11] = second compound 0.316 µM, first compound 3.16 µM
[12] = second compound 0.316 µM, first compound 10 µM
[13] = second compound 1 µM, first compound 0.0316 µM
[14] = second compound 1 µM, first compound 0.1 µM
[15] = second compound 1 µM, first compound 0.316 µM
[16] = second compound 1 µM, first compound 1 µM
[17] = second compound 1 µM, first compound 3.16 µM
[18] = second compound 1 µM, first compound 10 µM
[19] = second compound 3.16 µM, first compound 0.0316 µM
[20] = second compound 3.16 µM, first compound 0.1 µM
[21] = second compound 3.16 µM, first compound 0.316 µM
[22] = second compound 3.16 µM, first compound 1 µM
[23] = second compound 3.16 µM, first compound 3.16 µM
[24] = second compound 3.16 µM, first compound 10 µM
[25] = second compound 10 µM, first compound 0.0316 µM
[26] = second compound 10 µM, first compound 0.1 µM
[27] = second compound 10 µM, first compound 0.316 µM
[28] = second compound 10 µM, first compound 1 µM
[29] = second compound 10 µM, first compound 3.16 µM
[30] = second compound 10 µM, first compound 10 µM
[31] = second compound 0.1 µM, first compound 0.00316 µM
[32] = second compound 0.1 µM, first compound 0.01 µM
[33] = second compound 0.316 µM, first compound 0.00316 µM
[34] = second compound 0.316 µM, first compound 0.01 µM
[35] = second compound 1 µM, first compound 0.00316 µM
[36] = second compound 1 µM, first compound 0.01 µM
[37] = second compound 3.16 µM, first compound 0.00316 µM
[38] = second compound 3.16 µM, first compound 0.01 µM
[39] = second compound 10 µM, first compound 0.00316 µM
[40] = second compound 10 µM, first compound 0.01 µM
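Further: spheroids exposed to compounds for seven days before readout.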

CC(C)NCC(C(=O)N1CCN(c2ncnc3c2C(C)CC3O)CC1)c1ccc(Cl)cc1 (stereo not given) + C=CC(=O)N1CCN(c2nc(=O)n(-c3c(C)ccnc3C(C)C)c3nc(-c4c(O)cccc4F)c(F)cc23)C(C)C1
active: viability, T/C [6] 7.87% | viability, T/C [12] 6.33% | viability, T/C [23] 9.31% | viability, T/C [24] 5.92% | viability, T/C [28] 9.76% | viability, T/C [29] 7.72% | viability, T/C [30] 5.23%
inactive: viability, T/C [1] 101% | viability, T/C [2] 79.6% | viability, T/C [3] 44.7% | viability, T/C [4] 26.6% | viability, T/C [5] 14.2% | viability, T/C [7] 87.2% | viability, T/C [8] 80.5% | viability, T/C [9] 40.6% | viability, T/C [10] 27% | viability, T/C [11] 14.1% | viability, T/C [13] 89.1% | viability, T/C [14] 73.1% | viability, T/C [15] 28.9% | viability, T/C [16] 15.6% | viability, T/C [17] 12.7% | viability, T/C [18] 5.98% | viability, T/C [19] 61.1% | viability, T/C [20] 52.9% | viability, T/C [21] 23.3% | viability, T/C [22] 15.2% | viability, T/C [25] 35.1% | viability, T/C [26] 18.2% | viability, T/C [27] 15.9%
0.287 µM: IC50 (second compound 0.1 µM)
0.275 µM: IC50 (second compound 0.316 µM)
< 0.0316 µM: IC50 (second compound 10 µM)
0.184 µM: IC50 (second compound 1 µM)
0.107 µM: IC50 (second compound 3.16 µM)

CC1(C)CCC(CN2CCN(c3ccc(C(=O)NS(=O)(=O)c4ccc(NCC5CCOCC5)c([N+](=O)[O-])c4)c(Oc4cnc5[nH]ccc5c4)c3)CC2)=C(c2ccc(Cl)cc2)C1 + C=CC(=O)N1CCN(c2nc(=O)n(-c3c(C)ccnc3C(C)C)c3nc(-c4c(O)cccc4F)c(F)cc23)C(C)C1
0.538 µM: IC50 (second compound 3.16 µM)
1.76 µM: IC50 (second compound 0.316 µM)
active: viability, T/C [6] 3.05% | viability, T/C [12] 3.58% | viability, T/C [18] 2.8% | viability, T/C [24] 3.37% | viability, T/C [30] 5.41%
1.16 µM: IC50 (second compound 1 µM)
1.74 µM: IC50 (second compound 0.1 µM)
< 0.0316 µM: IC50 (second compound 10 µM)
inactive: viability, T/C [1] 99.6% | viability, T/C [2] 91.4% | viability, T/C [3] 91.7% | viability, T/C [4] 85.1% | viability, T/C [5] 12.4% | viability, T/C [7] 92.5% | viability, T/C [8] 92.2% | viability, T/C [9] 82.6% | viability, T/C [10] 78.7% | viability, T/C [11] 20.4% | viability, T/C [13] 78.4% | viability, T/C [14] 80.5% | viability, T/C [15] 75.4% | viability, T/C [16] 55.6% | viability, T/C [17] 12.9% | viability, T/C [19] 59.6% | viability, T/C [20] 58.2% | viability, T/C [21] 52.6% | viability, T/C [22] 44.2% | viability, T/C [23] 13.1% | viability, T/C [25] 32.7% | viability, T/C [26] 33.7% | viability, T/C [27] 31.9% | viability, T/C [28] 32.5% | viability, T/C [29] 6.8%

CCN1CCN(Cc2ccc(Nc3ncc(F)c(-c4cc(F)c5nc(C)n(C(C)C)c5c4)n3)nc2)CC1 + C=CC(=O)N1CCN(c2nc(=O)n(-c3c(C)ccnc3C(C)C)c3nc(-c4c(O)cccc4F)c(F)cc23)C(C)C1
0.0074 µM: IC50 (second compound 1 µM)
active: viability, T/C [4] 4.22% | viability, T/C [10] 4.52% | viability, T/C [16] 2.9% | viability, T/C [22] 2.48% | viability, T/C [26] 8.96% | viability, T/C [27] 8.17% | viability, T/C [28] 0.93%
0.00765 µM: IC50 (second compound 0.316 µM)
0.00446 µM: IC50 (second compound 3.16 µM)
< 0.00316 µM: IC50 (second compound 10 µM)
inactive: viability, T/C [31] 71.8% | viability, T/C [32] 37.4% | viability, T/C [1] 21.8% | viability, T/C [2] 18% | viability, T/C [3] 15.4% | viability, T/C [33] 76.3% | viability, T/C [34] 41.9% | viability, T/C [7] 20.9% | viability, T/C [8] 19.5% | viability, T/C [9] 14.6% | viability, T/C [35] 75.9% | viability, T/C [36] 40.6% | viability, T/C [13] 21.7% | viability, T/C [14] 15% | viability, T/C [15] 15.7% | viability, T/C [37] 55.4% | viability, T/C [38] 39.6% | viability, T/C [19] 18.5% | viability, T/C [20] 18.4% | viability, T/C [21] 16.6% | viability, T/C [39] 25.3% | viability, T/C [40] 14.2% | viability, T/C [25] 12.8%
0.00677 µM: IC50 (second compound 0.1 µM)

Cn1ncnc1[C@H]1c2n[nH]c(=O)c3cc(F)cc(c23)N[C@@H]1c1ccc(F)cc1 + C=CC(=O)N1CCN(c2nc(=O)n(-c3c(C)ccnc3C(C)C)c3nc(-c4c(O)cccc4F)c(F)cc23)C(C)C1
inactive: viability, T/C (second compound 0.1 µM, first compound 0.000316 µM) 101% | viability, T/C (second compound 0.1 µM, first compound 0.001 µM) 95.4% | viability, T/C [31] 94.5% | viability, T/C [32] 92.3% | viability, T/C [1] 88.1% | viability, T/C [2] 87% | viability, T/C (second compound 0.316 µM, first compound 0.000316 µM) 95.2% | viability, T/C (second compound 0.316 µM, first compound 0.001 µM) 88.4% | viability, T/C [33] 86.8% | viability, T/C [34] 87.6% | viability, T/C [7] 83% | viability, T/C [8] 75.7% | viability, T/C (second compound 1 µM, first compound 0.000316 µM) 81.1% | viability, T/C (second compound 1 µM, first compound 0.001 µM) 79.3% | viability, T/C [35] 80.5% | viability, T/C [36] 73.3% | viability, T/C [13] 64.6% | viability, T/C [14] 64.6% | viability, T/C (second compound 3.16 µM, first compound 0.000316 µM) 65.8% | viability, T/C (second compound 3.16 µM, first compound 0.001 µM) 66.6% | viability, T/C [37] 58.1% | viability, T/C [38] 60.9% | viability, T/C [19] 61.1% | viability, T/C [20] 56.3% | viability, T/C (second compound 10 µM, first compound 0.000316 µM) 39% | viability, T/C (second compound 10 µM, first compound 0.001 µM) 43.6% | viability, T/C [39] 43.9% | viability, T/C [40] 29.1% | viability, T/C [25] 34.3% | viability, T/C [26] 30.5%
< 0.000316 µM: IC50 (second compound 10 µM)
> 0.1 µM: IC50 (second compound 0.1 µM) | IC50 (second compound 0.316 µM) | IC50 (second compound 1 µM) | IC50 (second compound 3.16 µM)
